# Data as given in ChEMBL document CHEMBL4680085 (J Med Chem, 2016).
# Active and inactive are the calls of the source. The rule behind the calls is not given here.
# How the values were obtained:
# in vitro [1] = conditions: human, HepG2 cells
# Description: Toxicity in human HepG2 cells assessed as cell viability at 100 uM by MTT assay relative to control
# SH-SY5Y [2] = test: Neuroprotection in human SH-SY5Y cells assessed as reduction in Rotenone/Oligomycin A -induced cell death at 1 uM incubated for 24 hrs by MTT assay; format: functional; set-up: scale not given: the % may be the effect or the level left
# SH-SY5Y [3] = test: Neuroprotection in human SH-SY5Y cells assessed as reduction in beta-amyloid peptide (1-40)-induced cell death at 1 uM incubated for 24 hrs by MTT assay; format: functional; set-up: scale not given: the % may be the effect or the level left
# Acetylcholinesterase [4] = target: T1, Acetylcholinesterase (Homo sapiens, UniProt P22303); test: Inhibition of AChE in human erythrocyte hemo-lyzates pre-incubated for 5 mins before addition of acetylthiocholine iodide substrate by Ellman's method; format: tissue-based
# T1 sequence (P22303 whole entry): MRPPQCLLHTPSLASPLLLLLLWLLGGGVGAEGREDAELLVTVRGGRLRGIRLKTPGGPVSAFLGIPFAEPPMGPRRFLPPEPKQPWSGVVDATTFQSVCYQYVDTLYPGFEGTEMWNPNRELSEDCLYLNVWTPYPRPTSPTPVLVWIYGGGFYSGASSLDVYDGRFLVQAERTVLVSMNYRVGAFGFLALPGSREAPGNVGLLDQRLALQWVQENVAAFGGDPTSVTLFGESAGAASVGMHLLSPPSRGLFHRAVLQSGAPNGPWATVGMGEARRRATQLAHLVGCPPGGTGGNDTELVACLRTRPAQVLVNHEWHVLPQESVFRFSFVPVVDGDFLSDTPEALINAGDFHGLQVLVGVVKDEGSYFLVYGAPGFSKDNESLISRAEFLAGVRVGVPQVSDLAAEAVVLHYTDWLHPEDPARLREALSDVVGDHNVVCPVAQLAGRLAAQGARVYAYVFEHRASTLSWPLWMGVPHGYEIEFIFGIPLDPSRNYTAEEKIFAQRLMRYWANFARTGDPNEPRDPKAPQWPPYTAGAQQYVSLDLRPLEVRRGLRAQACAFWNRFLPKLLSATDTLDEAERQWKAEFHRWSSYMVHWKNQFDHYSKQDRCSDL
# Acetylcholinesterase [5] = target: Acetylcholinesterase (Electrophorus electricus, UniProt O42275); test: Inhibition of Electrophorus electricus AChE pre-incubated for 10 mins before addition of acetylthiocholine iodide substrate and further incubated for 15 mins by Ellman's method
# Sequence of Acetylcholinesterase (Electrophorus electricus, UniProt O42275) (O42275 whole entry): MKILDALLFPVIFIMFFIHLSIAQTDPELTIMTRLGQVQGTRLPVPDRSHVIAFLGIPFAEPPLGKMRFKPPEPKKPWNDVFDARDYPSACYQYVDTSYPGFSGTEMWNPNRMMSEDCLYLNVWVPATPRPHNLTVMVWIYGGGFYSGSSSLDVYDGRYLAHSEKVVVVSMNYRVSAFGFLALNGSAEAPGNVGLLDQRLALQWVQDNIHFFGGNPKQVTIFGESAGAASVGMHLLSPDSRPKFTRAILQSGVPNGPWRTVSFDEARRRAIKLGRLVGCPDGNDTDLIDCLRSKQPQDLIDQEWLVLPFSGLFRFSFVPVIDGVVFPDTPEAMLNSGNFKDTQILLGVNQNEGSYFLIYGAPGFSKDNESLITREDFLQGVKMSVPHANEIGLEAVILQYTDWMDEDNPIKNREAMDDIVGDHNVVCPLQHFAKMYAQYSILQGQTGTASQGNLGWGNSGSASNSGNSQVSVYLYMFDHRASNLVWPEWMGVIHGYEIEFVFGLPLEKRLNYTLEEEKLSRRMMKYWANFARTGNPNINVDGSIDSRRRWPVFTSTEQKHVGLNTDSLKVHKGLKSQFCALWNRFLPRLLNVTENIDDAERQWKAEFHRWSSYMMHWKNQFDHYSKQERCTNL
# SH-SY5Y [6] = test: Neuroprotection in human SH-SY5Y cells assessed as reduction in Rotenone/Oligomycin A -induced cell death at 3 uM incubated for 24 hrs by MTT assay; format: functional; set-up: scale not given: the % may be the effect or the level left
# SH-SY5Y [7] = test: Neuroprotection in human SH-SY5Y cells assessed as reduction in beta-amyloid peptide (1-40)-induced cell death at 3 uM incubated for 24 hrs by MTT assay; format: functional
# SH-SY5Y [8] = test: Neuroprotection in human SH-SY5Y cells assessed as reduction in H2O2-induced cell death at 3 uM incubated for 24 hrs by MTT assay; format: functional; set-up: scale not given: the % may be the effect or the level left
# in vitro [9] = conditions: human, HepG2 cells; remark: listed apart in the source
# Description: Toxicity in human HepG2 cells assessed as cell viability at 300 uM by MTT assay relative to control
# in vitro [10] = conditions: human, HepG2 cells; remark: listed apart in the source
# Description: Toxicity in human HepG2 cells assessed as cell viability at 1000 uM by MTT assay relative to control
# SH-SY5Y [11] = test: Neuroprotection in human SH-SY5Y cells assessed as reduction in H2O2-induced cell death at 1 uM incubated for 24 hrs by MTT assay; format: functional; set-up: scale not given: the % may be the effect or the level left
# Cholinesterase [12] = target: T2, Cholinesterase (Homo sapiens, UniProt P06276); test: Inhibition of BuChE in human erythrocyte hemo-lyzates pre-incubated for 5 mins before addition of butyrylthiocholine iodide substrate by Ellman's method; format: tissue-based
# T2 sequence (P06276 whole entry): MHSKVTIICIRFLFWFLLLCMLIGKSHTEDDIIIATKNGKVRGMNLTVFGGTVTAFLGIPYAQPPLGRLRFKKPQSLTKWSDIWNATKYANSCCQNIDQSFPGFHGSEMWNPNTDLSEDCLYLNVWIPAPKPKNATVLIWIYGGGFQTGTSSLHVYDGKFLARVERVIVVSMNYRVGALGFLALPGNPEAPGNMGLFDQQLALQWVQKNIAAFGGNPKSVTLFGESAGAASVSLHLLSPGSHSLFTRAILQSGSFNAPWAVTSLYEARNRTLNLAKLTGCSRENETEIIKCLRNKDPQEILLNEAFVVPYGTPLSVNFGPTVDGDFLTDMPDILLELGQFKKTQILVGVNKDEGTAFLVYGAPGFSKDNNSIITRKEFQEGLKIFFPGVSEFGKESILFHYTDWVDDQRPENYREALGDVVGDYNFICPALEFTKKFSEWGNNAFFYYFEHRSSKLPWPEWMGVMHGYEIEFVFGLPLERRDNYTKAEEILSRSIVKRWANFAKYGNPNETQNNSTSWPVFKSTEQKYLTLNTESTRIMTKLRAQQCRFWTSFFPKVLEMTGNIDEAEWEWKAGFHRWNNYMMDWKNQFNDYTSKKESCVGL
# [13] = target: T3, Nuclear factor erythroid 2-related factor 2 (Homo sapiens) (UniProt Q16236); test: Activation of NRF2 in human MCF-7/AREc32 cells assessed as concentration required to double Nrf2 transcriptional pathway by measuring specific luciferase reporter activity incubated for 24 hrs by luciferase reporter gene assay; format: cell-based; conditions: MCF7, filed as activator
# T3 sequence (whole entry): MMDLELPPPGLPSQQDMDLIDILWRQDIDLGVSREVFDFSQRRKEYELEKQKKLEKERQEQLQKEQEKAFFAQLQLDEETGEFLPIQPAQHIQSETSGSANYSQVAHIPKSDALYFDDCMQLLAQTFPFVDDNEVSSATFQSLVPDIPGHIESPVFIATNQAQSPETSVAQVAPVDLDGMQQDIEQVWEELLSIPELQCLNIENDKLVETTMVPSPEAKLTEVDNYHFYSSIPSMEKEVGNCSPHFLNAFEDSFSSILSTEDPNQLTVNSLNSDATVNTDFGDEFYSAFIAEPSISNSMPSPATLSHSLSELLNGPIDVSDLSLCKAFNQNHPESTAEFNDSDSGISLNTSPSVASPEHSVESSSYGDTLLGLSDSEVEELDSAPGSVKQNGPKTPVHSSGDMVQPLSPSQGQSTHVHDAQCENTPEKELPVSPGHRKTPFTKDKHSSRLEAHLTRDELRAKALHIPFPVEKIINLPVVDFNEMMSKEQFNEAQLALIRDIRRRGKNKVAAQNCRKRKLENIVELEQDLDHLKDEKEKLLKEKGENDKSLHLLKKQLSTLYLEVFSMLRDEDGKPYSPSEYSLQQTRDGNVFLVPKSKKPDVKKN
# Cholinesterase [14] = target: Cholinesterase (Equus caballus, UniProt P81908)
# Sequence of Cholinesterase (Equus caballus, UniProt P81908) (P81908 whole entry): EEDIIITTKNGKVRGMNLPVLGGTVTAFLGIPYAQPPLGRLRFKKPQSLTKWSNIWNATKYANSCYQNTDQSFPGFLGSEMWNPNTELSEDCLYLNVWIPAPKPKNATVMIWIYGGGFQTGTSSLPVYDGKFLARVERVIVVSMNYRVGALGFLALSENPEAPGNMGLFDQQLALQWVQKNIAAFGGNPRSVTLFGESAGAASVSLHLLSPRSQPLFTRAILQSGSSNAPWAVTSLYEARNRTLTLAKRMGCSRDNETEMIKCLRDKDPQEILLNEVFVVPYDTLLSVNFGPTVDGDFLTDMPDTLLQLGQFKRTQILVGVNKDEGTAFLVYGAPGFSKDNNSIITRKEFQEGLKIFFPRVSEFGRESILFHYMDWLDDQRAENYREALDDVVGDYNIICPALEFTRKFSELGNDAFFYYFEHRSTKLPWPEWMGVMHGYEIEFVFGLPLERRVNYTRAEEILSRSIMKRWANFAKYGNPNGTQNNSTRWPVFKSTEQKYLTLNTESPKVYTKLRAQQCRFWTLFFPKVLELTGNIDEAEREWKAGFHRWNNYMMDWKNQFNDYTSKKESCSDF
# Description: Inhibition of horse serum BuChE pre-incubated for 10 mins before addition of butyrylthiocholine iodide substrate and further incubated for 15 mins by Ellman's method
# [15] = Effective permeability at 100 uM after 3 to 6 hrs by PAMPA assay; format: ADME; conditions: time 3-6 hrs, read-out: Peff
# SH-SY5Y [16] = test: Neuroprotection in human SH-SY5Y cells assessed as reduction in beta-amyloid peptide (1-42)-induced cell death at 1 uM incubated for 24 hrs by MTT assay; format: functional; set-up: scale not given: the % may be the effect or the level left
# SH-SY5Y [17] = test: Neuroprotection in human SH-SY5Y cells assessed as reduction in beta-amyloid peptide (1-42)-induced cell death at 3 uM incubated for 24 hrs by MTT assay; format: functional; set-up: scale not given: the % may be the effect or the level left
# [18] = target: T3, Nuclear factor erythroid 2-related factor 2 (Homo sapiens); test: Activation of NRF2 in human MCF-7/AREc32 cells at 10 to 30 uM incubated for 24 hrs by luciferase reporter gene assay; format: cell-based; conditions: MCF7, filed as activator, dose 10-30 µM
# [19] = target: T3, Nuclear factor erythroid 2-related factor 2 (Homo sapiens); test: Activation of NRF2 in human MCF-7/AREc32 cells at 3 uM incubated for 24 hrs by luciferase reporter gene assay; format: cell-based; conditions: MCF7, filed as activator
# [20] = target: Cholinesterase (Equus caballus) (UniProt P81908); test: Potency index, ratio of IC50 for tacrine to IC50 for test compound for inhibition of horse serum BuChE
# Sequence of Cholinesterase (Equus caballus) (P81908 whole entry): as above
# [21] = target: Acetylcholinesterase (Electrophorus electricus) (UniProt O42275); test: Potency index, ratio of IC50 for tacrine to IC50 for test compound for inhibition of Electrophorus electricus AChE
# Sequence of Acetylcholinesterase (Electrophorus electricus) (O42275 24-633 limits assumed): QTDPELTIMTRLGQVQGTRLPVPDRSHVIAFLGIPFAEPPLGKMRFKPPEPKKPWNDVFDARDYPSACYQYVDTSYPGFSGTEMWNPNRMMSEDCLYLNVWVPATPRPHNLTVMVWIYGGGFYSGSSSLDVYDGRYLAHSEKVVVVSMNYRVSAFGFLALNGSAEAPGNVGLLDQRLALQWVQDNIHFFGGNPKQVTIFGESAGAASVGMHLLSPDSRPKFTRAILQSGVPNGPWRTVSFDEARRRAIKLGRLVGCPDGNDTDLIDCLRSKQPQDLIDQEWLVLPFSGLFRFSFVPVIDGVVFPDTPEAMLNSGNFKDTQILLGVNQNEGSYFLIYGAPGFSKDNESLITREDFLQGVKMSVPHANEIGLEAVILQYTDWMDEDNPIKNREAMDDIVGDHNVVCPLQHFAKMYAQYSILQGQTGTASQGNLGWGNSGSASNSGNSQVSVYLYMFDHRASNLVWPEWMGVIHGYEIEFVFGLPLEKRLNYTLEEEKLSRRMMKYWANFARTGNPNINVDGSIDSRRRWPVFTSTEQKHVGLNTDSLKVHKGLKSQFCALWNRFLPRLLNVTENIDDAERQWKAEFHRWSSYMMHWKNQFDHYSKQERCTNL
# [22] = Ratio of antioxidant activity of LA to antioxidant activity of test compound assessed as AAPH radical scavenging activity incubated for 15 mins by ORAC-FL method relative to Trolox; format: functional
# [23] = Ratio of antioxidant activity of FA to antioxidant activity of test compound assessed as AAPH radical scavenging activity incubated for 15 mins by ORAC-FL method relative to Trolox; format: functional
# [24] = Ratio of antioxidant activity of melatonin to antioxidant activity of test compound assessed as AAPH radical scavenging activity incubated for 15 mins by ORAC-FL method relative to Trolox; format: functional
# Cholinesterase [25] = target: T2, Cholinesterase; test: Competitive type inhibition of BuChE in human erythrocyte hemo-lyzates using […] substrate by Ellman's method based Lineweaver-Burk plot analysis; format: tissue-based
# Acetylcholinesterase [26] = target: T1, Acetylcholinesterase; test: Mixed type inhibition of AChE in human erythrocyte hemo-lyzates using acetylthiocholine iodide substrate by Ellman's method based Lineweaver-Burk plot analysis; format: tissue-based
# Cholinesterase [27] = target: T2, Cholinesterase; test: Potency index, ratio of IC50 for tacrine to IC50 for test compound for inhibition of BuChE in human erythrocyte hemo-lyzates pre-incubated for 5 mins before addition of butyrylthiocholine iodide substrate by Ellman's method; format: tissue-based
# Acetylcholinesterase [28] = target: T1, Acetylcholinesterase; test: Potency index, ratio of IC50 for tacrine to IC50 for test compound for inhibition of AChE in human erythrocyte hemo-lyzates pre-incubated for 5 mins before addition of acetylthiocholine iodide substrate by Ellman's method; format: tissue-based
# [29] = Antioxidant activity assessed as decrease in peak intensity of hydroxyl radicals at 100 uM by N-oxide self-spin assay relative to control; format: functional; set-up: scale not given: the % may be the effect or the level left
Compound,viability at 100 µM (in vitro [1]) [%],Activity (SH-SY5Y [2]) [%],Activity (SH-SY5Y [3]) [%],IC50 (Acetylcholinesterase [4]) [nM],IC50 (Acetylcholinesterase [5]) [nM],Activity (SH-SY5Y [6]) [%],Activity (SH-SY5Y [7]),Activity (SH-SY5Y [8]),viability at 300 µM (in vitro [9]) [%],viability at 1000 µM (in vitro [10]) [%],Activity (SH-SY5Y [11]) [%],IC50 (Cholinesterase [12]) [nM],CD [13] [µM],IC50 (Cholinesterase [14]) [nM],Papp at 100 µM [15] [×10⁻⁶ cm/s],Activity (SH-SY5Y [16]) [%],Activity (SH-SY5Y [17]),further results
COc1ccc2nc3c(c(NCCCCCCN(CC(=O)NCCc4c[nH]c5ccc(OC)cc45)C(=O)/C=C/c4ccc(O)c(OC)c4)c2c1)CCCC3,70.3,39.2,12,> 10000,17.8,29.2,inactive,42.8%,67.6,56.5,22.9,358,10.9,2.97,2.2,85.1,50.2%,–
COc1ccc2nc3c(c(NCCCCCCCCN(CC(=O)NCCc4c[nH]c5ccc(OC)cc45)C(=O)/C=C/c4ccc(O)c(OC)c4)c2c1)CCCC3,61,59.6,56.3,> 10000,29.7,48,35.1%,inactive,56,54.4,35.9,336,5.99,12,1.8,28,78.9%,Activity [18]: Active; Activity [19]: Active
CC(C)(C)c1cc(O)ccc1O,–,–,–,–,–,–,–,–,–,–,–,–,1.68,–,–,–,–,Activity [18]: Active; Activity [19]: Active
COC(=O)/C=C/c1ccc(O)c(OC)c1,–,23.8,27.8,–,–,21.3,53.9%,56.9%,–,–,51.1,–,–,–,–,40.7,inactive,–
COc1ccc2[nH]cc(CCNC(=O)CN(CCCCCCCCNc3c4c(nc5ccccc35)CCCC4)C(=O)CCCC[C@@H]3CCSS3)c2c1,86.2,–,–,180,3.62,–,–,–,58.9,48.8,–,211,–,1.25,6.9,–,–,Ratio IC50 [20]: 4; Ratio IC50 [21]: 12.2
COc1ccc2nc3c(c(NCCCCCCCN(CC(=O)NCCc4c[nH]c5ccc(OC)cc45)C(=O)/C=C/c4ccc(O)c(OC)c4)c2c1)CCCC3,84.7,33.7,70.6,1290,8.37,41.7,56.7%,30.9%,69.9,68.7,37.6,234,6.31,2.91,4.2,81.4,57.4%,Ratio [22]: 38; Ratio [23]: 2.43; Activity [18]: Active; Ratio [24]: 3.96; inhibition (Cholinesterase [25]): Active; inhibition (Acetylcholinesterase [26]): Active; Activity [19]: Active
COc1ccc2nc3c(c(NCCCCCCCCN(CC(=O)NCCc4c[nH]c5ccc(OC)cc45)C(=O)CCCC[C@@H]4CCSS4)c2c1)CCCC3,86.2,–,–,> 10000,14.8,–,–,–,77.8,44.9,–,1730,–,8.22,–,–,–,–
COc1ccc2[nH]cc(CCNC(=O)CN(CCCCCCCCNc3c4c(nc5ccccc35)CCCC4)C(=O)/C=C/c3ccc(O)c(OC)c3)c2c1,53.3,44.8,21.5,43.7,13.9,59.4,66.3%,51.3%,51.3,49.7,35.4,23.5,15.7,2.26,5.8,34.5,5.3%,Ratio IC50 (Cholinesterase [27]): 6.91; inhibition (Cholinesterase [25]): Active; inhibition (Acetylcholinesterase [26]): Active; Ratio IC50 (Acetylcholinesterase [28]): 6.91
CC(=O)SCCC(=O)NCCCCCCNc1c2c(nc3cc(Cl)ccc13)CCCC2,–,–,–,–,–,–,–,–,–,–,–,–,–,–,–,–,–,Activity [29]: 80.3%
COc1ccc2nc3c(c(NCCCCCCN(CC(=O)NCCc4c[nH]c5ccc(OC)cc45)C(=O)CCCC[C@@H]4CCSS4)c2c1)CCCC3,68.7,–,–,> 10000,16,–,–,–,46.4,44.8,–,1880,–,3.92,–,–,–,–
COc1ccc2nc3c(c(NCCCCCCCN(CC(=O)NCCc4c[nH]c5ccc(OC)cc45)C(=O)CCCC[C@@H]4CCSS4)c2c1)CCCC3,62.8,–,–,> 10000,7.56,–,–,–,57.7,48.9,–,2650,–,5.38,–,–,–,–
